Structures can show the parent of a compound that is named as a salt. Where two headings read alike, the source gives them in different places.
Experiments:
[1] = tested on: sound-induced tonic convulsions in DBA/2 mice; assay: Audiogenic seizure model in DBA/2 mice; type: in vivo; conditions: Mus musculus, protected/tested, read-out: Number of Mice Protected From Tonic Convulsions (converted); for responders at 30 mg/kg: 30 mg/Kg IV; for responders at 3 mg/kg: 3 mg/Kg IV; for responders at 10 mg/kg: 10 mg/Kg IV
Description: Audiogenic Seizure Model in DBA/2 Mice
A compound of the present invention was dissolved in water using 10% (weight/volume) Emulphor (GAF Corp., Wayne, N.J.) surfactant. Substances were administered by intravenous injection into the retro-orbital venous sinus of male mice (3-4 weeks old, Jackson Laboratories, Bar Harbour, Me.). All testing was preformed 15 minutes or 45 minutes after drug injection. Immediately before anticonvulsant testing, mice were placed upon a wire mesh, 4 inches square suspended from a steel rod. The square was slowly inverted through 180 degrees and mice observed for 30 seconds. Any mouse falling from the wire mesh was scored as ataxic.
Mice were placed into an enclosed acrylic plastic chamber (21 cm height, approximately 30 cm diameter) with a high-frequency speaker (4 cm diameter) in the center of the top lid. An audio signal generator (Protek model B-810) was used to produce a continuous sinusoidal tone that Was swept linearly in frequency between 8 kHz and 16 kHz once each 10 msec. The average sound pressure level (SPL) during stimulation was approximately 100 dB at the floor of the chamber. Mice were placed within the chamber and allowed to acclimatize for 1 minute. DBA/2 mice in the vehicle-treated group responded to the sound stimulus (applied until tonic extension occurred, or for a maximum of 60 sec) with a characteristic seizure sequence consisting of wild running followed by clonic seizures, and later by tonic extension, and finally by respiratory arrest and death in 80% or more of the mice. In vehicle-treated mice, the entire sequence of seizures to respiratory arrest lasts approximately 15-20 seconds.
The incidence of all the seizure phases in the drug-treated and vehicle-treated mice was recorded, and the occurrence of tonic seizures were used for calculating anticonvulsant ED50 values by probit analysis. Mice were used only once for testing at each time and dose point.

[2] = target: T1, N-type Ca2+ channels in cultured superior cervical ganglion (SCG) neurons (Rattus norvegicus, UniProt Q02294); assay: Calcium current in superior cervical ganglion neurons (whole-cell voltage clamp); type: cell-based; conditions: for inhibition at 1 µM: read-out: SCG Ca, % blockage at 1 μM; for inhibition at 10 µM: read-out: SCG Ca, % blockage at 10 μM; for IC50: read-out: SCG Ca, IC50
T1 construct: from tissue
Description: (§1) Electrophysiological techniques were used to measure the effects of experimental compounds on voltage-gated Ca^2+, […] , and K^+ channels. […] Sodium and potassium channel currents were measured from acutely dissociated SCG neurons.
(§2) Dissociation of the neurons from the ganglia was accomplished using a 30 to 45 minute treatment in 0.25% trypsin, similar to methods outlined in Higgins, et al. (see Higgins D. et al. “Tissue culture of mammalian autonomic neurons.” In Banker G. and Goslin K. (Eds), Culturing Nerve Cells, Cambridge, Mass., MIT Press [1991]).
(§3) Ca^2+, Na^+, and K^+ channel currents in SCG neurons were measured using conventional single electrode whole-cell voltage-clamp techniques, outlined in Hamill et al., (see Hamill O. P. et al. “Improved patch-clamp techniques for high resolution current recordings from cells and cell-free membrane patches.”Pflugers Arch., 1981;391:85-100). For Ca^2+ channel experiments, the external bathing solution contained tetraethylammonium chloride (100 mM), choline chloride (52 mM), NaCl (15 mM), HEPES (10 mM), glucose (5.6 mM), CaCl2 (2 mM), and MgCl2 (0.8 mM), pH 7.35 with KOH; with the internal pipette solution containing cesium methane sulfonate (140 mM), EGTA (10 mM), and HEPES (10 mM), supplemented with 5 mM Mg^2+-ATP on the day of the experiment, pH 7.4 with CsOH. For Na^+ and K^+ channel experiments, the external bathing solution contained NaCl (150 mM), KCl (5 mM), MgCl2 (1.1 mM), CaCl2 (2.6 mM), Na-HEPES (10 mM), and glucose (10 mM), pH 7.4; with the internal pipette solution containing KCl (80 mM), K-gluconate (50 mM), HEPES (10 mM), and EGTA (10 mM), pH 7.4 with KOH. Experimental compounds were diluted into the external solution and applied to the soma of cells by local perfusion from large diameter (20-50 μm) glass micropipettes or from a U-tube applicator.
After obtaining a whole-cell recording, Ca^2+ channels were elicited by stepping to test potentials between −40 and +20 mV for 120 msec from the holding potential of −90 mV to determine if the amplitude of the current and clamp control were adequate for evaluation of drug effects. Ca^2+ channel currents were evoked by stepping from a holding potentials between −65 mV and −55 mV to a test potential of +20 mV for 150 msec every 40 seconds. The amplitude of the Ca^2+ channel currents were compared before and during drug application and drug effects expressed as percent inhibition of the amplitude of control currents.

[3] = tested on: K+ channels in SCG neurons; assay: Potassium current in superior cervical ganglion neurons (whole-cell voltage clamp); type: cell-based, rat
Description: as §1, §2, §3
For Na^+ and K^+ channel currents, following the determination of the I/V relationship for each cell in control solution, currents were evoked from a holding potential between −65 and −55 mV by stepping every 10 sec to a test potential of either 0 mV for Na^+ or +50 mV for K^+ current for a duration of 35 msec. Peak inward current was measured for Na^+ and sustained current for K^+ channel currents. […] Test compounds were applied until steady-state block was achieved. Data were expressed as percent inhibition of control amplitudes for Na^+ and K^+ channel currents.

T1 sequence (Q02294 whole entry): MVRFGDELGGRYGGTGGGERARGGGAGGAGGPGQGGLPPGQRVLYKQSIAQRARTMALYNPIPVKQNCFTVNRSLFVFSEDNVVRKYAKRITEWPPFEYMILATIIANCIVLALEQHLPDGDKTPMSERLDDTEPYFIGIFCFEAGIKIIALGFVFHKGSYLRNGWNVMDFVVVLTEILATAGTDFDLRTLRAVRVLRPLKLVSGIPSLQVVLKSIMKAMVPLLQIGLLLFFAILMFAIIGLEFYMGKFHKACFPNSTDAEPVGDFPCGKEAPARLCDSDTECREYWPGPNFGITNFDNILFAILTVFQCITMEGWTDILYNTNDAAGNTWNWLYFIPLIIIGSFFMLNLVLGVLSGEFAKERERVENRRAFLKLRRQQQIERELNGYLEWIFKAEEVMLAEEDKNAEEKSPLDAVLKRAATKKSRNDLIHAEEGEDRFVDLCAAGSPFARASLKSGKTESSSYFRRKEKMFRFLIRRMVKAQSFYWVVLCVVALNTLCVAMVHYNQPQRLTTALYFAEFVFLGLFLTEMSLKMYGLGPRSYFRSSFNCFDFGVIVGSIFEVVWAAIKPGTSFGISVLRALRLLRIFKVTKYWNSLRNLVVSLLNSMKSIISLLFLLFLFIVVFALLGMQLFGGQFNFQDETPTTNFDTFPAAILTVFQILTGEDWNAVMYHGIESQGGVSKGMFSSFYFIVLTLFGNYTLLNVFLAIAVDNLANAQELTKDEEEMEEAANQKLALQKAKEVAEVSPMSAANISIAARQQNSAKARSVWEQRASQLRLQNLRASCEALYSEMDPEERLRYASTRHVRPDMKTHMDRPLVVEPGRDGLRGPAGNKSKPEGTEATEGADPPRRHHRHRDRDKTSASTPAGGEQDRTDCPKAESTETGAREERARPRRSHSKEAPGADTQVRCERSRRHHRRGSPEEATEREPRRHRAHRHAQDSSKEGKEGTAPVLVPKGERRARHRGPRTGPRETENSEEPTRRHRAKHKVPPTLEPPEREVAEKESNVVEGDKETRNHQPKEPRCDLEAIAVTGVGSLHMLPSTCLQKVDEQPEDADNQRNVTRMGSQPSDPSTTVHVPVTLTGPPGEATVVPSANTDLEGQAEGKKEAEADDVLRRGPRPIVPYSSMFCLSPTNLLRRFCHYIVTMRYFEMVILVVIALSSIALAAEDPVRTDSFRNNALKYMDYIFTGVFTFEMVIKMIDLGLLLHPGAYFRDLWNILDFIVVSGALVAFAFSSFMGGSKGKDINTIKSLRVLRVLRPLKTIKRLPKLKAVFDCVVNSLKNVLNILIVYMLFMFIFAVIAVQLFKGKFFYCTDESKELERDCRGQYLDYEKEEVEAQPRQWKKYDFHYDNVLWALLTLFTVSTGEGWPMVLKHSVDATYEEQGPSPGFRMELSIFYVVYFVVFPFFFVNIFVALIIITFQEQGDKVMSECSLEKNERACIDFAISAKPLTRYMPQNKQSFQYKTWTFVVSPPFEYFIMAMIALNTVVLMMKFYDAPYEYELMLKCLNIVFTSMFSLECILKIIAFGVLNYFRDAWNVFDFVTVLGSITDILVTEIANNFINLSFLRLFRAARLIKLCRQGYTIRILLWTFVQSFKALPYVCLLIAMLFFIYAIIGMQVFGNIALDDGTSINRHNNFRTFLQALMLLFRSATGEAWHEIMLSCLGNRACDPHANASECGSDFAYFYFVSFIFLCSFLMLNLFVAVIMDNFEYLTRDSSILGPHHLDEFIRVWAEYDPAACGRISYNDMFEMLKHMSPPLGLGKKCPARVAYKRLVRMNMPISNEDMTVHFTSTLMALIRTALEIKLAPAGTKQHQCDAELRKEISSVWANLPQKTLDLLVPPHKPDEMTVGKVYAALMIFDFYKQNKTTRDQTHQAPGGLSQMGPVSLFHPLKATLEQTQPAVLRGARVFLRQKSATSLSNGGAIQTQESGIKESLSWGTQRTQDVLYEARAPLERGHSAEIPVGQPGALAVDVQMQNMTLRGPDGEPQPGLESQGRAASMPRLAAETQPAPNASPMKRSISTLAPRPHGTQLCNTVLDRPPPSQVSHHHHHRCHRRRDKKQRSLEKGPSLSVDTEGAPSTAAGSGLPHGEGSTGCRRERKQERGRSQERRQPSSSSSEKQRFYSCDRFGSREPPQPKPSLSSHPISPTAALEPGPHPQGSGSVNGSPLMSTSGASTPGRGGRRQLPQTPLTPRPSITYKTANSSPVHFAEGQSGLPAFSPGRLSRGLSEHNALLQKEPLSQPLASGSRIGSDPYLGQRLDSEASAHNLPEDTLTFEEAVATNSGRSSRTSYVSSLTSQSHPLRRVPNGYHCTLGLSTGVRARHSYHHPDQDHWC
T1 sequence (P54290 25-944 partner limits assumed): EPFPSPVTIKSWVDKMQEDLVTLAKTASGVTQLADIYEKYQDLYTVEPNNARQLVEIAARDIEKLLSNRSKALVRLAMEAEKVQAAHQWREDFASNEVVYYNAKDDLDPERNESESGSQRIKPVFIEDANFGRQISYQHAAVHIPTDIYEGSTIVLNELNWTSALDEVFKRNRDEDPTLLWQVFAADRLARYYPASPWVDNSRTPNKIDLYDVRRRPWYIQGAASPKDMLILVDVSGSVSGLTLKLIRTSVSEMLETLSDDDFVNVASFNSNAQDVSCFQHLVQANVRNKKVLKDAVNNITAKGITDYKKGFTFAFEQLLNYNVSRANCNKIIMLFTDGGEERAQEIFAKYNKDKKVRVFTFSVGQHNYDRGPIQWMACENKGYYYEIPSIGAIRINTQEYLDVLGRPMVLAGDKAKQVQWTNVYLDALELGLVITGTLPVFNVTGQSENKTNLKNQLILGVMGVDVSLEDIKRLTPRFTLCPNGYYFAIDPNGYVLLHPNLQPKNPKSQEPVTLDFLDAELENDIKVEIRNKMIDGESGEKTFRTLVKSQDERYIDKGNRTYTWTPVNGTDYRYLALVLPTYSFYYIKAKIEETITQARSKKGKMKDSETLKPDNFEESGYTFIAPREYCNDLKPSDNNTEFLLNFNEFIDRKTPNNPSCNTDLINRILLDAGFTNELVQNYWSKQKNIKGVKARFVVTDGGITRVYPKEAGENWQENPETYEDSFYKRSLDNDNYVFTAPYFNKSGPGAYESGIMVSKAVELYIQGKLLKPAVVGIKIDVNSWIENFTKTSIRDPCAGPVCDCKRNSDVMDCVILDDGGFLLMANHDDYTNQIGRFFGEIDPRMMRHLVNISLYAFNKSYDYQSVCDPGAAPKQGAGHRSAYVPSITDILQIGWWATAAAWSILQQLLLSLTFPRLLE
T1 sequence (P54290 945-1091 partner limits assumed): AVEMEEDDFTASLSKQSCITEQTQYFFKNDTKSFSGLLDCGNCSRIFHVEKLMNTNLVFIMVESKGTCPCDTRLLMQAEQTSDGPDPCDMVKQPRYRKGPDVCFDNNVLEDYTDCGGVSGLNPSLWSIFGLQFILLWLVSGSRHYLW
T1 sequence (P54287 whole entry partner): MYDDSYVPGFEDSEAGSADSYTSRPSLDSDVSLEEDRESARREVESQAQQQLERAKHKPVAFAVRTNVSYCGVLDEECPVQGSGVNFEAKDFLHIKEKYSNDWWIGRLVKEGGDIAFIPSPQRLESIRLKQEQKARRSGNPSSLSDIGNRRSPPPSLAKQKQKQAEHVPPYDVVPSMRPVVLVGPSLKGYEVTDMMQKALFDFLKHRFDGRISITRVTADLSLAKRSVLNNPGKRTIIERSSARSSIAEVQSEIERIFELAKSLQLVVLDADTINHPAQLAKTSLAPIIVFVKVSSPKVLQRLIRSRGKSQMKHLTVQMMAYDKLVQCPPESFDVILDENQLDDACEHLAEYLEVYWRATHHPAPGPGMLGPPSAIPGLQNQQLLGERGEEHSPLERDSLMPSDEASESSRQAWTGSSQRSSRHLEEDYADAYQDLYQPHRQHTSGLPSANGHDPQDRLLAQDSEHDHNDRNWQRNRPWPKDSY

Row | Compound | responders at 30 mg/kg ([1]; 0.25 h, 15 min posttreatment) [%] | responders at 30 mg/kg ([1]; 0.75 h, 45 min posttreatment) [%] | inhibition at 1 µM [2] [%] | inhibition at 10 µM [2] [%] | SCG K, % blockage at 10 μM [3] [% @ 10] | responders at 3 mg/kg ([1]; 0.25 h, 15 min posttreatment) [%] | responders at 10 mg/kg ([1]; 0.25 h, 15 min posttreatment) [%] | responders at 3 mg/kg ([1]; 0.75 h, 45 min posttreatment) [%] | responders at 10 mg/kg ([1]; 0.75 h, 45 min posttreatment) [%] | IC50 [2] [µM] | IC50 [3] [µM] | SCG K, % blockage at 1 μM [3] [% @ 1]
1 | CC(C)C[C@H](N)C(=O)NCCCC(c1ccc(F)cc1)c1ccc(F)cc1 [Example 7, (S)-2-Amino-4-methyl-pentanoic acid [4,4-bis-(4-fluoro-phenyl)-butyl]-amide monohydrochloride] | 80 | 80 | 45 | 98 | 90 | – | – | – | – | – | – | –
2 | CC(C)C[C@H](NCC1CCCCC1)C(=O)NCCCC(c1ccc(F)cc1)c1ccc(F)cc1 [Example 8, (S)-2-(Cyclohexylmethyl-amino)-4-methyl-pentanoic acid [4,4-bis-(4-fluoro-phenyl)-butyl]-amide monohydrochloride] | 100 | 100 | – | – | 50 | 0 | 80 | 0 | 40 | 2.4 | – | –
3 | CC(C)=CCN[C@@H](CC(C)C)C(=O)NCCCC(c1ccc(F)cc1)c1ccc(F)cc1 [Example 9, (S)-4-Methyl-2-(3-methyl-but-2-enylamino)-pentanoic acid [4,4-bis-(4-fluoro-phenyl)-butyl]-amide monohydrochloride] | 100 | 100 | – | – | – | 60 | 100 | 0 | 60 | 53 | 9.1 | –
4 | CN[C@@H](CC(C)C)C(=O)NCCCC(c1ccc(F)cc1)c1ccc(F)cc1 [Example 12, (S)-4-Methyl-2-methylamino-pentanoic acid [4,4-bis-(4-fluoro-phenyl)-butyl]-amide monohydrochloride] | 100 | 80 | 3 | 94 | 58 | – | – | – | – | – | – | 15
5 | CC(C)C[C@@H](C(=O)NCCCC(c1ccc(F)cc1)c1ccc(F)cc1)N(C)Cc1ccc(C(C)(C)C)cc1.Cl [Example 14, (S)-2-[(4-tert-Butyl-benzyl)-methyl-amino]-4-methyl-pentanoic acid [4,4-bis-(4-fluoro-phenyl)-butyl]-amide monohydrochloride] | – | – | – | 8 | −1 | – | – | – | – | – | – | –
6 | CC(C)CCN(C)[C@@H](CC(C)C)C(=O)NCCCC(c1ccc(F)cc1)c1ccc(F)cc1 [Example 28, (S)-4-Methyl-2-[methyl-(3-methyl-butyl)-amino]-pentanoic acid [4,4-bis-(4-fluoro-phenyl)-butyl]-amide monohydrochloride] | 80 | 100 | 55 | 88 | 47 | – | – | – | – | – | – | 3
7 | CC(C)C[C@H](NC(=O)N1CCCCCC1)C(=O)N1CCN(C(c2ccc(F)cc2)c2ccc(F)cc2)CC1 [Example 31, (S)-Azepane-1-carboxylic acid (1-{4-[bis-(4-fluoro-phenyl)-methyl]-piperazine-1-carbonyl}-3-methyl-butyl)-amide] | 0 | 0 | 2.5 | 62 | – | – | – | – | – | – | – | –
8 | CC(C)[C@H](NC(=O)N1CCCCCC1)C(=O)N1CCN(C(c2ccc(F)cc2)c2ccc(F)cc2)CC1 [Example 33, (S)-Azepane-1-carboxylic acid (1-{4-[bis-(4-fluoro-phenyl)-methyl]-piperazine-1-carbonyl}-2-methyl-propyl)-amide] | 0 | 0 | 18 | 72 | 39 | – | – | – | – | – | – | –
9 | CC(C)C[C@@H](CN1CCN(C(c2ccc(F)cc2)c2ccc(F)cc2)CC1)NC(=O)N1CCCCCC1 [Example 36, (S)-Azepane-1-carboxylic acid (1-{4-[bis-(4-fluoro-phenyl)-methyl]-piperazin-1-ylmethyl}-3-methyl-butyl)-amide] | – | – | 18 | 81 | 27 | – | – | – | – | – | – | –
10 | CC(C)C[C@@H](C(=O)N1CCN(C(c2ccc(F)cc2)c2ccc(F)cc2)CC1)N(C)C [Example 39, (S)-1-{4-[Bis-(4-fluoro-phenyl)-methyl]-piperazin-1-yl}-2-dimethylamino-4-methyl-pentan-1-one dihydrochloride] | – | – | 15 | 75 | – | – | – | – | – | – | – | 6
